Assay results as given in article PMC10593844, “Structure-function analyses reveal key molecular determinants of HIV-1 CRF01_AE resistance to the entry inhibitor temsavir” (Nature Communications, 2023).
Values joined by “and” are separate entries in the source; they are usually repeats but may differ in a detail not shown here. Identical values can stand only once. Like-named read-outs stand apart in the source and are kept apart here.

Legend:
[1] = test system: HIV-1 pseudovirus bearing EnvJR-FL S375M; experiment: organism not typed; format: cell-based
[2] = test system: HIV-1 pseudovirus bearing EnvJR-FL S375Y; experiment: organism not typed; format: cell-based; settings: for Relative infectivity (%): JRFL S375Y
[3] = test system: HIV-1 pseudovirus bearing EnvJR-FL S375W; experiment: organism not typed; format: cell-based; settings: for Relative infectivity (%): JRFL S375W
[4] = test system: HIV-1 pseudovirus bearing CRF01_AE 92TH023 Env WT; experiment: organism not typed; format: cell-based; settings: for Relative infectivity (%): 92TH023 WT
[5] = test system: HIV-1 pseudovirus bearing CRF01_AE 92TH023 Env LM; experiment: organism not typed; format: cell-based; settings: for Relative infectivity (%): 92TH023 LM
[6] = test system: HIV-1 pseudovirus bearing CRF01_AE 92TH023 Env LMHT; experiment: organism not typed; format: cell-based; settings: for Relative infectivity (%): 92TH023 LMHT
[7] = test system: HIV-1 pseudovirus bearing CRF01_AE CM244 Env WT; experiment: organism not typed; format: cell-based; settings: for Relative infectivity (%): CM244 WT
[8] = test system: HIV-1 pseudovirus bearing CRF01_AE CM244 Env LM; experiment: organism not typed; format: cell-based; settings: for Relative infectivity (%): CM244 LM
[9] = test system: HIV-1 pseudovirus bearing clade B YU2 Env WT; experiment: organism not typed; format: cell-based; settings: for Relative infectivity (%): YU2 WT
[10] = test system: HIV-1 pseudovirus bearing clade B YU2 Env LM+ST; experiment: organism not typed; format: cell-based; settings: for Relative infectivity (%): YU2 LM+ST
[11] = test system: HIV-1 pseudovirus bearing clade B YU2 Env LM+SH; experiment: organism not typed; format: cell-based; settings: for Relative infectivity (%): YU2 LM+SH
[12] = test system: HIV-1 pseudovirus bearing clade B YU2 Env Y61H; format: cell-based
[13] = test system: HIV-1 pseudovirus bearing clade B YU2 Env D474N/M475I/R476K; format: cell-based
[14] = test system: HIV-1JR-FL Env S375N on HEK293T cells; format: binding; settings: JRFL S375N; temsavir 10 µM; listed as TMR
[15] = test system: HIV-1JR-FL Env S375M on HEK293T cells; format: binding; settings: JRFL S375M; temsavir 10 µM; listed as TMR
[16] = test system: HIV-1JR-FL Env S375F on HEK293T cells; format: binding; settings: JRFL S375F; temsavir 10 µM; listed as TMR
[17] = test system: HIV-1JR-FL Env S375W on HEK293T cells; format: binding; settings: JRFL S375W; temsavir 10 µM; listed as TMR
[18] = test system: CRF01_AE 92TH023 Env LM on HEK293T cells; format: binding; settings: 92TH023 LM; temsavir 10 µM; listed as TMR
[19] = test system: CRF01_AE 92TH023 Env LMHT on HEK293T cells; format: binding; settings: 92TH023 LMHT; temsavir 10 µM; listed as TMR
[20] = test system: CRF01_AE CM244 Env LM on HEK293T cells; format: binding; settings: temsavir 10 µM, listed as TMR
[21] = test system: CRF01_AE CM244 Env LM+HS on HEK293T cells; format: binding; settings: temsavir 10 µM, listed as TMR
[22] = biological target: T1, clade B YU2 Env S375T on HEK293T cells (Human immunodeficiency virus type 1 group M subtype B, UniProt P35961, S370T); format: binding; settings: temsavir 10 µM, listed as TMR
T1 construct: expressed in transfected cells; host or cells: HEK293T (pSVIIIenv co-transfected with a Tat expressor)

[23] = test system: clade B YU2 Env LM on HEK293T cells; format: binding; settings: temsavir 10 µM, listed as TMR
[24] = test system: clade B YU2 Env LMST on HEK293T cells; format: binding; settings: temsavir 10 µM, listed as TMR
[25] = test system: clade B YU2 Env LMSH on HEK293T cells; format: binding; settings: temsavir 10 µM, listed as TMR

## COc1cnc(-n2cnc(C)n2)c2[nH]cc(C(=O)C(=O)N3CCN(C(=O)c4ccccc4)CC3)c12 [Temsavir, temsavir]
[1]; Cf2Th-CD4/CCR5
  IC50: 64.7 nM
[1]; JRFL S375M, Temsavir 0.1 nM
  Relative infectivity (%): 98.6007% and 143.038% and 92.762%
[2]; Cf2Th-CD4/CCR5
  IC50: > 100 nM
[2]; Temsavir 0.1 nM
  Relative infectivity (%): 95.0549% and 100.21% and 92.5783%
[2]; Temsavir 0.5 nM
  Relative infectivity (%): 93.6966% and 92.3523% and 97.9897%
[2]; Temsavir 1 nM
  Relative infectivity (%): 103.494% and 95.9187% and 99.1671%
[2]; Temsavir 5 nM
  Relative infectivity (%): 82.1418% and 84.655% and 82.6307%
[3]; Cf2Th-CD4/CCR5
  IC50: > 100 nM
[3]; Temsavir 0.1 nM
  Relative infectivity (%): 99.9863% and 100.025% and 95.7102%
[3]; Temsavir 0.5 nM
  Relative infectivity (%): 97.6131% and 107.833% and 88.0394%
[3]; Temsavir 1 nM
  Relative infectivity (%): 112.34% and 95.1648% and 85.749%
[3]; Temsavir 5 nM
  Relative infectivity (%): 108.208% and 99.6983% and 99.0301%
[4]; Temsavir 1 nM
  Relative infectivity (%): 89.8645% and 102.181% and 86.0322%
[4]; Temsavir 5 nM
  Relative infectivity (%): 77.4465% and 120.721% and 86.7772%
[4]; Temsavir 10 nM
  Relative infectivity (%): 69.308% and 86.3374% and 95.4665%
[4]; Temsavir 50 nM
  Relative infectivity (%): 75.3192% and 101.13% and 84.1355%
[4]; Cf2Th-CD4/CCR5
  IC50: > 50 nM
[5]; Temsavir 1 nM
  Relative infectivity (%): 82.8885% and 105.829% and 81.5038%
[5]; Temsavir 5 nM
  Relative infectivity (%): 63.4532% and 71.1451% and 85.9246%
[5]; Temsavir 10 nM
  Relative infectivity (%): 66.9458% and 79.651% and 87.1271%
[5]; Temsavir 50 nM
  Relative infectivity (%): 76.0092% and 99.9867% and 85.6288%
[5]; Cf2Th-CD4/CCR5
  IC50: > 50 nM
[6]; Temsavir 1 nM
  Relative infectivity (%): 42.8978% and 67.1593% and 55.5357%
[6]; Temsavir 5 nM
  Relative infectivity (%): 44.0227% and 46.691% and 23.9805%
[6]; Temsavir 50 nM
  Relative infectivity (%): 14.3245% and 26.4308% and 14.3408%
[6]; Cf2Th-CD4/CCR5
  IC50: 1.31 nM
[7]; Temsavir 1 nM
  Relative infectivity (%): 91.0915% and 114.42% and 104.549%
[7]; Temsavir 5 nM
  Relative infectivity (%): 80.9718% and 103.03% and 93.7921%
[7]; Temsavir 10 nM
  Relative infectivity (%): 79.7783% and 110.299% and 108.245%
[7]; Temsavir 50 nM
  Relative infectivity (%): 78.0773% and 106.103% and 90.5088%
[7]; Cf2Th-CD4/CCR5
  IC50: > 50 nM
[8]; Temsavir 1 nM
  Relative infectivity (%): 102.819% and 104.55% and 70.4862%
[8]; Temsavir 10 nM
  Relative infectivity (%): 98.1419% and 107.4% and 59.1318%
[8]; Temsavir 50 nM
  Relative infectivity (%): 106.175% and 96.9147% and 54.579%
[8]; Cf2Th-CD4/CCR5
  IC50: > 50 nM
[9]; Cf2Th-CD4/CCR5
  IC50: 0.68 nM
[9]; Temsavir 1 nM, Fig 2f
  Relative infectivity (%): 27.4498% and 23.3742% and 28.1647%
[9]; Temsavir 2 nM, Fig S1
  Relative infectivity (%): 66.79% and 41.21% and 35.57%
[9]; Temsavir 5 nM, Fig 2f
  Relative infectivity (%): 1.267% and 2.642% and 1.583%
[9]; Temsavir 5 nM, Fig S1
  Relative infectivity (%): 6.29% and 2.61% and 2.85%
[9]; Temsavir 10 nM, Fig 2f
  Relative infectivity (%): 0.2419% and 0.2962% and 0.3923%
[9]; Temsavir 10 nM, Fig S1
  Relative infectivity (%): 2.59% and 2.79% and 2.69%
[9]; Temsavir 50 nM, Fig 2f
  Relative infectivity (%): 0.2461% and 0.2675% and 0.3334%
[9]; Temsavir 50 nM, Fig S1
  Relative infectivity (%): 2.66% and 2.72% and 2.93%
[9]; Temsavir 100 nM, Fig 2f
  Relative infectivity (%): 0.2542% and 0.2474% and 0.3435%
[9]; Temsavir 100 nM, Fig S1
  Relative infectivity (%): 2.55% and 3.03% and 2.93%
[10]; Cf2Th-CD4/CCR5
  IC50: 32.1 nM
[10]; Temsavir 1 nM
  Relative infectivity (%): 95.2565% and 91.9655% and 79.6279%
[10]; Temsavir 5 nM
  Relative infectivity (%): 83.0048% and 82.0339% and 77.855%
[10]; Temsavir 10 nM
  Relative infectivity (%): 75.1553% and 73.7876% and 56.2664%
[10]; Temsavir 50 nM
  Relative infectivity (%): 36.2326% and 38.0343% and 31.1158%
[10]; Temsavir 100 nM
  Relative infectivity (%): 20.7287% and 13.4951% and 13.1747%
[11]; Cf2Th-CD4/CCR5
  IC50: > 100 nM
[11]; Temsavir 1 nM
  Relative infectivity (%): 101.627% and 98.3187% and 88.9144%
[11]; Temsavir 5 nM
  Relative infectivity (%): 105.436% and 97.7235% and 87.2207%
[11]; Temsavir 10 nM
  Relative infectivity (%): 114.432% and 105.33% and 87.5665%
[11]; Temsavir 50 nM
  Relative infectivity (%): 115.171% and 108.587% and 70.9415%
[11]; Temsavir 100 nM
  Relative infectivity (%): 115.039% and 106.712% and 94.0587%
[12]; Temsavir 5 nM
  Relative infectivity (%): 2.81% and 1.74% and 3.98%
[12]; Temsavir 10 nM
  Relative infectivity (%): 1.05% and 1.23% and 1.34%
[12]; Temsavir 50 nM
  Relative infectivity (%): 1.04% and 1.28% and 3.8%
[12]; Temsavir 100 nM
  Relative infectivity (%): 0.97% and 2.23% and 1.32%
[13]; Temsavir 5 nM
  Relative infectivity (%): 61.12% and 58.84% and 77.63%
[13]; Temsavir 100 nM
  Relative infectivity (%): 18.08% and 29.17% and 19.26%
[14]
  sCD4 binding (+TMR) - Fold over DMSO: 0.2273 and 0.2477 and 0.2229
[15]
  sCD4 binding (+TMR) - Fold over DMSO: 0.2258 and 0.2038 and 0.2793
[16]
  sCD4 binding (+TMR) - Fold over DMSO: 0.9879 and 0.8506 and 0.9038
[17]
  sCD4 binding (+TMR) - Fold over DMSO: 1.038 and 0.9906 and 0.8801
[18]
  sCD4 binding (+TMR) - Fold over DMSO: 1.042 and 0.933 and 0.9789
[19]
  sCD4 binding (+TMR) - Fold over DMSO: 0.7044 and 0.6853 and 0.7442
[20]
  sCD4 binding (+TMR) - Fold over DMSO: 1.043 and 1.054 and 0.9268
[21]
  sCD4 binding (+TMR) - Fold over DMSO: 0.6661 and 0.4581 and 0.6625
[22]
  sCD4 binding (+TMR) - Fold over DMSO: 0.6011 and 0.7082 and 0.7739
[23]
  sCD4 binding (+TMR) - Fold over DMSO: 0.8112 and 0.8641 and 1.018
[24]
  sCD4 binding (+TMR) - Fold over DMSO: 0.9452 and 1.1963 and 0.9128
[25]
  sCD4 binding (+TMR) - Fold over DMSO: 1.199 and 1.141 and 1.081
